In patent publication US5254577A, “Aminomethyloxooxazolidinyl arylbenzene derivatives useful as antibacterial agents” (The Du Pont Merck Pharmaceutical Company, priority 1992, dated 1993):
Converted amounts (≈) assume the structure as drawn. Where two headings read alike, the source gives them in different places.

Assays:
Escherichia coli = experiment: In vitro broth microdilution, 24-hour minimal inhibitory concentration (MIC); assay type: cell-based; conditions: Mueller-Hinton broth; for MIC: read-out: Minimum Inhibitory Concentration
Source text: (§1) A standard microdilution method (National Committee for Clinical Standards. Tentative standard M7-T. Standard methods for dilution antimicrobial susceptibility tests for bacteria that grow aerobically. National Committee for Clinical Laboratory Standards, Villanova, Pa. 1982) with Mueller-Hinton broth is used to determine the 24-hour minimal inhibitory concentrations (MIC's) for test strains of Staphylococcus aureus and Escherichia coli.

Staphylococcus aureus [1] = experiment: as above; assay type: cell-based; conditions: Mueller-Hinton broth; for MIC: read-out: Minimum Inhibitory Concentration
Source text: as §1

Staphylococcus aureus [2] = experiment: In vivo activity against Staphylococcus aureus in an acute lethal mouse model; conditions: mice infected intraperitoneally, dosed 1 h and 4 h post-infection, survivors on seventh day
Protocol: The in vivo potency of these compounds is exemplified by the data summarized in Table X. Determinations of in vivo efficacy are performed by inoculating mice intraperitoneally with cultures of the infecting organism diluted to produce 100% mortality in control animals within twenty-four hours. The culture of S. aureus used to infect the animals was diluted to the required bacterial density using 5% aqueous hog gastric mucin. The compounds are dissolved or suspended in 0.25% aqueous Methocel® (Methocel®: Hydroxypropyl Methylcullulose, E15 Premium, Dow Chemical Company) for oral administration or sterile distilled water containing 5% dimethylsulfoxide (Fisher Scientific Company, Fairlawn, N.J.) for subcutaneous administration. The mice are dosed at one hour and at four hours post-infection. Mortality is recorded daily until test determination seven days post infection. The number of survivors in each treatment group on the seventh day after infection is used in the calculation of the ED50, the dose of compound that protects 50% of the mice (Litchfield,J. T. and Wildoxon. A simulated method for evaluating dose-effect experiments. J. Pharmacol Exp. Ther., 98:99-113, 1949).

[3] = Staphylococcus aureus, sc, 168 h, Subcutaneous Administration, read-out: ED50
[4] = Staphylococcus aureus, 168 h, Oral Administration, read-out: ED50

SMILES | MIC (Escherichia coli) [µg/mL] | MIC (Staphylococcus aureus [1]) [µg/mL] | ED50 (Staphylococcus aureus [2]; [3]) [mg/kg] | ED50 (Staphylococcus aureus [2]; [4]) [mg/kg] | Minimum Inhibitory Concentration (Escherichia coli) [µg/mL] | Minimum Inhibitory Concentration (Staphylococcus aureus [1]) [µg/mL] | ED50 (Staphylococcus aureus [2]; Oral Administration, 10080 min) [mg/kg] | ED50 (Staphylococcus aureus [2]; Subcutaneous Administration, 10080 min) [mg/kg]
CC(=O)NC[C@H]1CN(c2ccc(-c3ccc(CN(CCO)CCO)cc3)cc2)C(=O)O1 [Example 50] | > 128 | 0.5 (≈ 1.17 µM) | 6.5 | – | – | – | – | –
CC(=O)NC[C@H]1CN(c2ccc(-c3ccc(C(=O)CCN(C)C)cc3)cc2)C(=O)O1 [Example 57, (l)-N-[3-(4-(4'-(3-N,N-dimethylaminopropionyl)phenyl)phenyl)-2-oxooxazolidin-5-ylmethyl]acetamide] | > 128 | 1 (≈ 2.44 µM) | 10 | 18 | – | – | – | –
CC(=O)NC[C@H]1CN(c2ccc(-c3ccc(C(=O)CCN4CCN(C)CC4)cc3)cc2)C(=O)O1 [Example 60] | > 128 | 1 (≈ 2.15 µM) | 5.5 | 30 | – | – | – | –
CC(=O)NC[C@H]1CN(c2ccc(-c3ccc(C(O)CCN4CCN(C)CC4)cc3)cc2)C(=O)O1 (stereo partly drawn) [Example 61] | > 128 | 2 (≈ 4.29 µM) | 2.7 | 47.4 | – | – | – | –
CC(=O)NC[C@H]1CN(c2ccc(-c3ccc(C(=O)C(C)CN4CCN(C)CC4)cc3)cc2)C(=O)O1 (stereo partly drawn) [Example 62] | > 128 | 2 (≈ 4.18 µM) | 10 | 51.9 | – | – | – | –
C=C(C)C(=O)c1ccc(-c2ccc(N3C[C@H](CNC(C)=O)OC3=O)cc2)cc1 [Example 63] | > 128 | 0.25 (≈ 0.661 µM) | > 90 | > 90 | – | – | – | –
CC(=O)NC[C@H]1CN(c2ccc(-c3ccc(C(O)C(C)CN4CCN(C)CC4)cc3)cc2)C(=O)O1 (stereo partly drawn) [Example 64] | > 128 | 4 (≈ 8.32 µM) | 11 | 50 | – | – | – | –
CSc1ccc(-c2ccc(N3C[C@H](CNC(C)=O)OC3=O)cc2)cc1 [Example 67, (l)-N-[3-(4-(4'-methylthiophenyl)phenyl)-2-oxooxazolidin-5-ylmethyl]acetamide] | > 128 | 0.25 (≈ 0.701 µM) | 30 | 4.5 | – | – | – | –
CC(=O)NCC1CN(c2ccc(-c3ccc(S(C)(=O)=O)cc3)cc2)C(=O)O1 (stereo not drawn) [Example 69, (l)-N-[3-(4-(4'-Methylsulfonylphenyl)phenyl)-2-oxooxazolidin-5-ylmethyl]acetamide] | – | – | – | – | > 128 | 0.25 | 4 | 1.2
CCc1cccc(-c2ccc(N3C[C@H](CNC(C)=O)OC3=O)cc2)c1 [Example 70] | > 128 | 2 (≈ 5.91 µM) | 10 | 17 | – | – | – | –
CC(=O)NC[C@H]1CN(c2ccc(-c3ccccc3C)cc2)C(=O)O1 [Example 71] | > 128 | 2 (≈ 6.17 µM) | > 90 | 51.9 | – | – | – | –
CC(=O)NC[C@H]1CN(c2ccc(-c3cccc(N)c3)cc2)C(=O)O1 [Example 73] | > 128 | 0.5 (≈ 1.54 µM) | 5 | 11.8 | – | – | – | –
CC(=O)NC[C@H]1CN(c2ccc(-c3cccc(N(C)C)c3)cc2)C(=O)O1 [Example 74] | > 128 | 8 (≈ 22.6 µM) | 17.1 | – | – | – | – | –
CC(=O)NC[C@H]1CN(c2ccc(-c3ccncc3)cc2)C(=O)O1 [Example 85, (l)-N-[3-(4-(4-Pyridyl)phenyl)-2-oxooxazolidin-5-ylmethyl]acetamide] | > 128 | < 0.13 | 0.5 | 1.3 | – | – | – | –
CC(=O)NC[C@H]1CN(c2ccc(-c3ccccn3)cc2)C(=O)O1 [Example 86] | > 128 | 2 (≈ 6.42 µM) | 15.5 | – | – | – | – | –
CC(=O)NC[C@H]1CN(c2ccc(-c3cccc[n+]3[O-])cc2)C(=O)O1 [Example 87] | > 128 | 32 (≈ 97.8 µM) | 9.8 | 16.1 | – | – | – | –
CC(=O)NC[C@H]1CN(c2ccc(-c3cccnc3)cc2)C(=O)O1 [Example 88] | > 128 | < 0.13 | 0.5 | 1.6 | – | – | – | –
CC(=O)NC[C@H]1CN(c2ccc(-c3ccc[n+]([O-])c3)cc2)C(=O)O1 [Example 89] | > 128 | 2 (≈ 6.11 µM) | < 3.3 | 2 | – | – | – | –
CC(=O)NC[C@H]1CN(c2ccc(-c3cc(O)ccc3O)cc2)C(=O)O1 [Example 113, (l)-N-[3-(4-(2',5'-Dihydroxyphenyl)phenyl)-2-oxooxazolidin-5-ylmethyl]acetamide] | > 128 | 16 (≈ 46.7 µM) | 68.3 | > 90 | – | – | – | –
CCc1ccc(-c2ccc(N3C[C@H](CNC(C)=O)OC3=O)cc2)cc1 [Example 114, (l)-N-[3-(4-(4'-Ethylphenyl)phenyl)-2-oxooxazolidin-5-ylmethyl]acetamide] | > 128 | 0.5 (≈ 1.48 µM) | > 100 | 8.1 | – | – | – | –
CC(=O)NCC1CN(c2ccc(-c3ccc([N+](C)(C)[O-])cc3)cc2)C(=O)O1 (stereo not drawn) [Example 116] | > 128 | 16 (≈ 43.3 µM) | 6.4 | – | – | – | – | –
CC(=O)NC[C@H]1CN(c2ccc(-c3cccc([N+](=O)[O-])c3)cc2)C(=O)O1 [Example 119] | > 128 | < 0.13 | 5 | 6.2 | – | – | – | –
CC(=O)NC[C@H]1CN(c2ccc(-c3ccno3)cc2)C(=O)O1 [Example 130, (l)-N-[3-[4-(5-Isoxazolyl)phenyl]-2-oxooxazolidin-5-ylmethyl]acetamide] | > 128 | 1 (≈ 3.32 µM) | 6 | 6 | – | – | – | –
CC(=O)NC[C@H]1CN(c2ccc(-c3csc(C)n3)cc2)C(=O)O1 [Example 132] | > 128 | 4 (≈ 12.1 µM) | 17 | – | – | – | – | –
CC(=O)NC[C@H]1CN(c2ccc(-c3csc(N)n3)cc2)C(=O)O1 [Example 134] | > 128 | 8 (≈ 24.1 µM) | 47 | 56.5 | – | – | – | –
CC(=O)NC[C@H]1CN(c2ccc(-c3ccnc(N)n3)cc2)C(=O)O1 [Example 135] | > 128 | 4 (≈ 12.2 µM) | – | 68 | – | – | – | –
CC(=O)NC[C@H]1CN(c2ccc(-c3cnco3)cc2)C(=O)O1 [Example 136] | > 128 | 1 (≈ 3.32 µM) | 51.9 | 14.8 | – | – | – | –
